# According to ChEMBL document CHEMBL1201862, “PubChem BioAssay data set” (2004):
#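 Exposure lasted 48 hours, with cells grown in 96-well plates and compounds tested at five concentrations. GI50: concentration for 50% inhibition of growth.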 Calls of active or inactive are those of the source. Rule as the data show it: active = GI50 up to about 1.1 µM and inactive = higher.
# What was measured:
# Assay in all cases: NCI tumour cell line growth inhibition, 48 h
# [1] = test system: A549
# [2] = test system: RXF 393
# [3] = test system: SK-MEL-5
# [4] = test system: NCI-H23
# [5] = test system: SR
# [6] = test system: COLO 205
# [7] = test system: SF-539
# [8] = test system: KM12
# [9] = test system: M19-MEL
# [10] = test system: HCT-15
# [11] = test system: UACC-62
# [12] = test system: SW-620
# [13] = test system: XF498
# [14] = test system: OVCAR-3
# [15] = test system: IGROV-1
# [16] = test system: DMS-273
# [17] = test system: NCI-H460
# [18] = test system: CCRF-CEM
# [19] = test system: UO-31
# [20] = test system: Malme-3M
# [21] = test system: 786-0
# [22] = test system: SF-268
# [23] = test system: KM-20L2
# [24] = test system: RPMI-8226
# [25] = test system: TK-10
# [26] = test system: M14
# [27] = test system: NCI-H226
# [28] = test system: HOP-62
# [29] = test system: SNB-19
# [30] = test system: HCT-116
# [31] = test system: HL-60
# [32] = test system: OVCAR-5
# [33] = test system: HT-29
# [34] = test system: EKVX
# [35] = test system: ACHN
# [36] = test system: U-251
# [37] = test system: SNB-78
# [38] = test system: LXFL 529
# [39] = test system: CAKI-1
# [40] = test system: HOP-92
# [41] = test system: HCC 2998
# [42] = test system: UACC-257
# [43] = test system: MOLT-4
# [44] = test system: A498
# [45] = test system: SK-MEL-2
# [46] = test system: HOP-18
# [47] = test system: SK-OV-3
# [48] = test system: K562
# [49] = test system: SNB-75
# [50] = test system: SN12C
# [51] = test system: SF-295
# [52] = test system: OVCAR-4
# [53] = test system: NCI-H522
# [54] = test system: SK-MEL-28
# [55] = test system: DLD-1
# [56] = test system: DMS-114
# [57] = test system: LOX IMVI
# [58] = test system: OVCAR-8
compound,measurement,setting,value
O=c1[nH]cnc(NC2C=C(CO)C(O)C2O)c1[N+](=O)[O-] (stereo not drawn),GI50,[1],> 83.2 µM (inactive)
same,GI50,[2],> 100 µM (inactive)
same,GI50,[3],> 100 µM (inactive)
same,GI50,[4],> 100 µM (inactive)
same,GI50,[5],> 100 µM (inactive)
same,GI50,[6],> 62.7 µM (inactive)
same,GI50,[7],> 100 µM (inactive)
same,GI50,[8],> 100 µM (inactive)
same,GI50,[9],> 76.6 µM (inactive)
same,GI50,[10],> 40.3 µM
same,GI50,[11],> 100 µM (inactive)
same,GI50,[12],> 43.2 µM (inactive)
same,GI50,[13],> 100 µM (inactive)
same,GI50,[14],> 100 µM (inactive)
same,GI50,[15],> 100 µM (inactive)
same,GI50,[16],> 47.2 µM (inactive)
same,GI50,[17],> 40.1 µM (inactive)
same,GI50,[18],> 71.1 µM (inactive)
same,GI50,[19],> 100 µM (inactive)
same,GI50,[20],> 100 µM (inactive)
same,GI50,[21],> 46.2 µM (inactive)
same,GI50,[22],> 100 µM (inactive)
same,GI50,[23],> 100 µM (inactive)
same,GI50,[24],> 45.9 µM (inactive)
same,GI50,[25],> 100 µM (inactive)
same,GI50,[26],> 100 µM (inactive)
same,GI50,[27],> 100 µM (inactive)
same,GI50,[28],> 100 µM (inactive)
same,GI50,[29],> 100 µM (inactive)
same,GI50,[30],> 37.7 µM (inactive)
same,GI50,[31],> 37.2 µM (inactive)
same,GI50,[32],> 100 µM (inactive)
same,GI50,[33],> 100 µM (inactive)
same,GI50,[34],> 100 µM (inactive)
same,GI50,[35],> 100 µM (inactive)
same,GI50,[36],> 63.5 µM (inactive)
same,GI50,[37],> 100 µM (inactive)
same,GI50,[38],> 100 µM (inactive)
same,GI50,[39],> 100 µM (inactive)
same,GI50,[40],> 100 µM (inactive)
same,GI50,[41],> 100 µM (inactive)
same,GI50,[42],> 100 µM (inactive)
same,GI50,[43],> 100 µM (inactive)
same,GI50,[44],> 100 µM (inactive)
same,GI50,[45],> 100 µM (inactive)
same,GI50,[46],> 100 µM (inactive)
same,GI50,[47],> 100 µM (inactive)
same,GI50,[48],> 100 µM (inactive)
same,GI50,[49],> 100 µM (inactive)
same,GI50,[50],> 100 µM (inactive)
same,GI50,[51],> 100 µM (inactive)
same,GI50,[52],> 100 µM (inactive)
same,GI50,[53],> 100 µM (inactive)
same,GI50,[54],> 100 µM (inactive)
same,GI50,[55],> 58.6 µM (inactive)
same,GI50,[56],> 51.3 µM (inactive)
same,GI50,[57],> 41.2 µM (inactive)
same,GI50,[58],> 100 µM (inactive)
Cc1cccc(C(C)(C)C)c1NC(=O)C(=O)C(c1cnc2ccccc2n1)[N+](=O)[O-] (stereo not drawn),GI50,[1],> 100 µM (inactive)
same,GI50,[2],> 100 µM (inactive)
same,GI50,[3],> 100 µM (inactive)
same,GI50,[4],> 100 µM (inactive)
same,GI50,[5],> 100 µM (inactive)
same,GI50,[6],> 100 µM (inactive)
same,GI50,[7],> 100 µM (inactive)
same,GI50,[8],> 100 µM (inactive)
same,GI50,[9],> 100 µM (inactive)
same,GI50,[10],> 100 µM
same,GI50,[11],> 100 µM (inactive)
same,GI50,[12],> 100 µM (inactive)
same,GI50,[13],> 100 µM (inactive)
same,GI50,[15],> 100 µM (inactive)
same,GI50,[16],> 100 µM (inactive)
same,GI50,[17],62.2 µM (inactive)
same,GI50,[18],32.1 µM (inactive)
same,GI50,[19],> 100 µM (inactive)
same,GI50,[20],> 100 µM (inactive)
same,GI50,[21],> 100 µM (inactive)
same,GI50,[22],> 100 µM (inactive)
same,GI50,[23],> 100 µM (inactive)
same,GI50,[24],60.3 µM (inactive)
same,GI50,[25],> 100 µM (inactive)
same,GI50,[26],> 100 µM (inactive)
same,GI50,[27],> 100 µM (inactive)
same,GI50,[28],> 100 µM (inactive)
same,GI50,[29],> 100 µM (inactive)
same,GI50,[30],> 100 µM (inactive)
same,GI50,[31],65.3 µM (inactive)
same,GI50,[32],> 100 µM (inactive)
same,GI50,[33],> 100 µM (inactive)
same,GI50,[34],> 100 µM (inactive)
same,GI50,[35],> 100 µM (inactive)
same,GI50,[36],> 100 µM (inactive)
same,GI50,[37],> 100 µM (inactive)
same,GI50,[38],> 100 µM (inactive)
same,GI50,[39],> 100 µM (inactive)
same,GI50,[40],> 100 µM (inactive)
same,GI50,[41],> 100 µM (inactive)
same,GI50,[42],> 100 µM (inactive)
same,GI50,[43],58.1 µM (inactive)
same,GI50,[44],> 100 µM (inactive)
same,GI50,[45],> 100 µM (inactive)
same,GI50,[46],> 100 µM (inactive)
same,GI50,[47],> 100 µM (inactive)
same,GI50,[48],> 100 µM (inactive)
same,GI50,[49],> 100 µM (inactive)
same,GI50,[50],> 100 µM (inactive)
same,GI50,[51],> 100 µM (inactive)
same,GI50,[52],> 100 µM (inactive)
same,GI50,[53],38.5 µM (inactive)
same,GI50,[54],> 100 µM (inactive)
same,GI50,[55],> 100 µM (inactive)
same,GI50,[56],> 100 µM (inactive)
same,GI50,[57],> 100 µM (inactive)
same,GI50,[58],> 100 µM (inactive)
C=C1C(=O)OC2C[C@@]3(C)CCCC(=C)C3CC12 (stereo partly drawn),GI50,[1],12.2 µM (inactive)
same,GI50,[2],2.77 µM (inactive)
same,GI50,[3],7.64 µM (inactive)
same,GI50,[4],13.7 µM (inactive)
same,GI50,[5],> 100 µM (inactive)
same,GI50,[6],2.93 µM (inactive)
same,GI50,[7],1.95 µM (inactive)
same,GI50,[8],2.24 µM (inactive)
same,GI50,[10],10.9 µM
same,GI50,[11],5.56 µM (inactive)
same,GI50,[12],3.92 µM (inactive)
same,GI50,[13],3.69 µM (inactive)
same,GI50,[14],10.4 µM (inactive)
same,GI50,[15],19 µM (inactive)
same,GI50,[16],2.54 µM (inactive)
same,GI50,[17],4.68 µM (inactive)
same,GI50,[18],> 100 µM (inactive)
same,GI50,[19],4.98 µM (inactive)
same,GI50,[20],3.52 µM (inactive)
same,GI50,[22],12.9 µM (inactive)
same,GI50,[23],12.2 µM (inactive)
same,GI50,[25],11.4 µM (inactive)
same,GI50,[26],6.34 µM (inactive)
same,GI50,[27],12.9 µM (inactive)
same,GI50,[28],20.5 µM (inactive)
same,GI50,[29],11.2 µM (inactive)
same,GI50,[30],4.05 µM (inactive)
same,GI50,[32],19.5 µM (inactive)
same,GI50,[33],7.14 µM (inactive)
same,GI50,[34],17.1 µM (inactive)
same,GI50,[35],14 µM (inactive)
same,GI50,[36],10.1 µM (inactive)
same,GI50,[37],3.27 µM (inactive)
same,GI50,[38],3.2 µM (inactive)
same,GI50,[39],6.62 µM (inactive)
same,GI50,[40],4.26 µM (inactive)
same,GI50,[41],13.6 µM (inactive)
same,GI50,[42],10.3 µM (inactive)
same,GI50,[44],6.89 µM (inactive)
same,GI50,[45],3.91 µM (inactive)
same,GI50,[46],17.5 µM (inactive)
same,GI50,[47],19.5 µM (inactive)
same,GI50,[49],7.23 µM (inactive)
same,GI50,[50],4.44 µM (inactive)
same,GI50,[51],11.4 µM (inactive)
same,GI50,[52],13.4 µM (inactive)
same,GI50,[53],1.9 µM (inactive)
same,GI50,[54],11.7 µM (inactive)
same,GI50,[55],3.49 µM (inactive)
same,GI50,[56],16.2 µM (inactive)
same,GI50,[57],1.22 µM (inactive)
same,GI50,[58],11.7 µM (inactive)
N=C(NC(=S)N1CCCCC1)N1CCCCC1,GI50,[1],> 100 µM (inactive)
same,GI50,[2],> 100 µM (inactive)
same,GI50,[3],> 100 µM (inactive)
same,GI50,[4],> 100 µM (inactive)
same,GI50,[5],> 100 µM (inactive)
same,GI50,[7],> 100 µM (inactive)
same,GI50,[8],> 100 µM (inactive)
same,GI50,[9],> 100 µM (inactive)
same,GI50,[10],> 100 µM
same,GI50,[11],> 100 µM (inactive)
same,GI50,[12],> 100 µM (inactive)
same,GI50,[13],> 100 µM (inactive)
same,GI50,[15],> 100 µM (inactive)
same,GI50,[16],> 100 µM (inactive)
same,GI50,[17],> 100 µM (inactive)
same,GI50,[18],> 100 µM (inactive)
same,GI50,[19],> 100 µM (inactive)
same,GI50,[20],> 100 µM (inactive)
same,GI50,[21],> 100 µM (inactive)
same,GI50,[22],> 100 µM (inactive)
same,GI50,[23],> 100 µM (inactive)
same,GI50,[24],> 100 µM (inactive)
same,GI50,[25],> 100 µM (inactive)
same,GI50,[26],> 100 µM (inactive)
same,GI50,[27],5.71 µM (inactive)
same,GI50,[28],> 100 µM (inactive)
same,GI50,[29],> 100 µM (inactive)
same,GI50,[30],> 100 µM (inactive)
same,GI50,[31],> 100 µM (inactive)
same,GI50,[32],> 100 µM (inactive)
same,GI50,[33],> 100 µM (inactive)
same,GI50,[34],> 100 µM (inactive)
same,GI50,[35],> 100 µM (inactive)
same,GI50,[36],> 100 µM (inactive)
same,GI50,[37],> 100 µM (inactive)
same,GI50,[38],> 100 µM (inactive)
same,GI50,[39],> 100 µM (inactive)
same,GI50,[40],> 100 µM (inactive)
same,GI50,[41],> 100 µM (inactive)
same,GI50,[42],> 100 µM (inactive)
same,GI50,[43],> 100 µM (inactive)
same,GI50,[44],> 100 µM (inactive)
same,GI50,[45],> 100 µM (inactive)
same,GI50,[46],> 100 µM (inactive)
same,GI50,[47],> 100 µM (inactive)
same,GI50,[48],> 100 µM (inactive)
same,GI50,[49],> 100 µM (inactive)
same,GI50,[50],> 100 µM (inactive)
same,GI50,[51],> 100 µM (inactive)
same,GI50,[52],> 100 µM (inactive)
same,GI50,[53],> 100 µM (inactive)
same,GI50,[54],> 100 µM (inactive)
same,GI50,[55],> 100 µM (inactive)
same,GI50,[56],> 100 µM (inactive)
same,GI50,[57],> 100 µM (inactive)
same,GI50,[58],> 100 µM (inactive)
